Assay results: patent EP3074389B1, “QUINOLINE DERIVATIVES AS BROMODOMAIN INHIBITORS” (Gilead Sciences, Inc., priority 2013, dated 2015)

Assays:
[1] = molecular target: BRD4 domain 1 (Homo sapiens, UniProt O60885); test: Kd determination of inhibitors binding to BRD4 domain 1 (Epic label-free platform); conditions: direct binding to immobilized BRD4 domain 1; tripling dilution series from 20µM; about 1hr equilibrium; rounded to whole number; read-out: Epic Kd BRD41
Description: (§1) Kd Determination of Inhibitors Binding to BRD4 Domain 1 and Domain 2
(§2) The binding of small molecule inhibitors to either BRD4 domain 1 or domain 2 were determined using the Epic, high-throughput, label-free platform (Corning, Lowell, MA). The Epic instrument incorporates an evanescent waveguide sensor within each well of its proprietary 384-well microplates. Direct binding of inhibitors to BRD4 immobilized onto the microplate well surface can be detected by exposing the waveguide to a broadband light source. The resulting resonant wavelength shift (measured in picometers (pm)) is proportional to the mass bound to the surface. Epic biochemical plates (Corning, Lowell, MA) were activated by adding 15 µL/well of 200 mM EDC and 50 mM Sulfo-NHS (Pierce Thermo Scientific, Rockford, IL) and incubated for 60 minutes at room temperature. Plates were washed three times with MilliQ water and dried by centrifugation (1 minute at 400 rpm). BRD4 immobilization was accomplished by resuspending the protein at a concentration of 150 µg/mL in 20 mM HEPES (pH 7) and adding 10 µL/well. […] Compound/inhibitor binding was determined by calculating difference between the baseline (first read) and second read. The resulting binding response was fitted to a single site binding isotherm in order to determine an equilibrium dissociation constant (Kd).

[2] = molecular target: BRD4 domain 2 (Homo sapiens, UniProt O60885); test: Kd determination of inhibitors binding to BRD4 domain 2 (Epic label-free platform); conditions: direct binding to immobilized BRD4 domain 2; tripling dilution series from 20µM; about 1hr equilibrium; rounded to whole number
Description: as §1, §2

| Kd [1] [µM] | Kd [2] [µM] | SMILES |
| --- | --- | --- |
| 0.896 | 0.61 | Cc1noc(C)c1-c1cc(S(=O)(=O)NC2CCCC2)c2cc(NC(C)C)c(=O)[nH]c2c1 [Compound 77, N-cyclopentyl-7-(3,5-dimethylisoxazol-4-yl)-3-(isopropylamino)-2-oxo-1,2-dihydroquinoline-5-sulfonamide] |
| 15.8 | > 20 | Cc1noc(C)c1-c1cc(S(=O)(=O)N[C@@H]2C[C@H]2c2ccccc2)c2cccnc2c1 [Compound 12, 7-(3,5-dimethylisoxazol-4-yl)-N-((1R,2S)-2-phenylcyclopropyl)qui noline-5-sulfonamide] |
| 0.76 | 0.561 | Cc1noc(C)c1-c1cc(S(=O)(=O)NC2CCCC2)c2cc(-n3cccn3)c(=O)[nH]c2c1 [Compound 33, N-cyclopentyl-7-(3,5-dimethylisoxazol-4-yl)-2-oxo-3-(1H-pyrazol-1-yl)-1,2-dihydroquinoline-5-sulfonamide] |
| 4.85 | 3.21 | Cc1noc(C)c1-c1cc(S(=O)(=O)NC2CCCC2)c2cc(N3CCOC3=O)c(=O)[nH]c2c1 [Compound 64, N-cyclopentyl-7-(3,5-dimethylisoxazol-4-yl)-2-oxo-3-(2-oxooxazolidin-3-yl)-1,2-dihydroquinoline-5-sulfonamide] |
| 13.8 | 2.92 | Cc1noc(C)c1-c1cc(S(=O)(=O)NC2CC2)c2ccc(=O)[nH]c2c1 [Compound 68, N-cyclopropyl-7-(3,5-dimethylisoxazol-4-yl)-2-oxo-1,2-dihydroquinoline-5-sulfonamide] |
| 5.48 | 11.1 | Cc1noc(C)c1-c1cc(S(=O)(=O)N[C@H]2C[C@@H](N)C2)c2cccnc2c1 [Compound 34, N-((1S,3S)-3-aminocyclobutyl)-7-(3,5-dimethylisoxazol-4-yl)quinoline-5-sulfonamide] |
| 19.5 | 16.7 | Cc1noc(C)c1-c1cc(S(=O)(=O)N[C@@H]2CCC[C@@H]2O)c2cccnc2c1 [Compound 23, 7-(3,5-dimethylisoxazol-4-yl)-N-((1R,2S)-2-hydroxycyclopentyl)q uinoline-5-sulfonamide] |
| 0.671 | 0.632 | Cc1noc(C)c1-c1cc(S(=O)(=O)NC2CCCC2)c2cc(NCC(C)(C)N)c(=O)[nH]c2c1 [Compound 99, 3-((2-amino-2-methylpropyl)amino)-N-cyclopentyl-7-(3,5-dimethylisoxazol-4-yl)-2-oxo-1,2-dihydroquinoline-5-sulfonamide] |
| > 20 | 11.7 | Cc1noc(C)c1-c1cc(S(=O)(=O)NC2(C#N)CCCC2)c2cccnc2c1 [Compound 52, N-(1-cyanocyclopentyl)-7-(3,5-dimethylisoxazol-4-yl)quinoline-5-sulfonamide] |
| 3.55 | 2.11 | Cc1noc(C)c1-c1cc(S(=O)(=O)NC2(C)CCCC2)c2cccnc2c1 [Compound 24, 7-(3,5-dimethylisoxazol-4-yl)-N-(1-methylcyclopentyl)qui noline-5-sulfonamide] |
| 8.95 | 11.4 | Cc1noc(C)c1-c1cc(S(=O)(=O)N[C@H](C)C(F)(F)F)c2cccnc2c1 [Compound 100, (R)-7-(3,5-dimethylisoxazol-4-trifluoropropan-2-yl)quinoline-5-sulfonamide] |
| 0.85 | 0.526 | CNc1cc2c(S(=O)(=O)NC3CCCC3)cc(-c3c(C)noc3C)cc2[nH]c1=O [Compound 62, N-cyclopentyl-7-(3,5-dimethylisoxazol-4-yl)-3-(methytamino)-2-oxo-1,2-dihydroquinoline-5-sulfonamide] |
| 12.5 | 6.8 | Cc1noc(C)c1-c1cc(S(=O)(=O)N[C@H]2CCC[C@H]2O)c2cccnc2c1 [Compound 27, 7-(3,5-dimethylisoxazol-4-yl)-N-((1S,2R)-2-hydroxycyclopentyl)q uinoline-5-sulfonamide] |
| 5.56 | 13.4 | Cc1noc(C)c1-c1cc(S(=O)(=O)NC2CCC(C)(C)C2)c2cccnc2c1 (stereo not drawn) [Compound 39, N-(3,3-dimethylcyclopentyl)-7-(3,5-dimethylisoxazol-4-yl)quinoline-5-sulfonamide] |
| 0.798 | 0.503 | Cc1noc(C)c1-c1cc(S(=O)(=O)NC2CCCC2)c2cc(NCCCN(C)C)c(=O)[nH]c2c1 [Compound 95, N-cyclopentyl-3-((3-(dimethylamino)propyl)amino)-7-(3,5-dimethylisoxazol-4-yl)-2-oxo-1,2-dihydroquinoline-5-sulfonamide] |
| 1.03 | 0.545 | Cc1noc(C)c1-c1cc(S(=O)(=O)NC2CCCC2)c2cc(NCC(C)(C)O)c(=O)[nH]c2c1 [Compound 98, N-cyclopentyl-7-(3,5-dimethylisoxazol-4-yl)-3-((2-hydroxy-2-methylpropyl)amino)-2-oxo-1,2-dihydroquinoline-5-sulfonamide] |
| 16.2 | 6.84 | Cc1noc(C)c1-c1cc(S(=O)(=O)N[C@@H]2CCC[C@H]2C(=O)NCc2nccn2C)c2cccnc2c1 [Compound 42, (1R,2R)-2-(7-(3,5-dimethylisoxazol-4-yl)quinoline-5-sulfonamido)-N-((1-methyl-1H-imidazol-2-yl)methyl)cyclopentan ecarboxamide] |
| 1.44 | 2.33 | Cc1noc(C)c1-c1cc(S(=O)(=O)N[C@@H]2CCC[C@H]2C(=O)NCCN)c2cccnc2c1 [Compound 72, (1R,2R)-N-(2-aminoethyl)-2-(7-(3,5-dimethylisoxazol-4-yl)quinoline-5-sulfonamido)cyclopen tanecarboxamide] |
| 2.11 | 2.04 | Cc1noc(C)c1-c1cc(S(=O)(=O)NC2CCCC2)c2ccc(OCC3CC3)nc2c1 [Compound 6, N-cyclopentyl-2-(cyclopropylmethoxy) -7-(3,5-dimethylisoxazol-4-yl)quinoline-5-sulfonamide] |
| 3.48 | 2.46 | Cc1noc(C)c1-c1cc(S(=O)(=O)NC2CCCC2)c2nccnc2c1 [Compound 86, N-cyclopentyl-7-(3,5-dimethylisoxazol-4-yl)quinoxaline-5-sulfonamide] |
| 0.652 | 0.56 | Cc1noc(C)c1-c1cc(S(=O)(=O)NC2CCCC2)c2cc(NCCN3CCOCC3)c(=O)[nH]c2c1 [Compound 90, N-cyclopentyl-7-(3,5-dimethylisoxazol-4-yl)-3-((2-morpholinoethyl)amino)-2-oxo-1,2-dihydroquinoline-5-sulfonamide] |
| 0.897 | 0.493 | Cc1noc(C)c1-c1cc(S(=O)(=O)NC2CCCC2)c2cc(NC(CO)CO)c(=O)[nH]c2c1 [Compound 92, N-cyclopentyl-3-((1,3-dihydroxypropan-2-yl)amino)-7-(3,5-dimethylisoxazol-4-yl)-2-oxo-1,2-dihydroquinoline-5-sulfonamide] |
| 0.705 | 0.473 | Cc1noc(C)c1-c1cc(S(=O)(=O)NC2CCCC2)c2cc(NCCOCCO)c(=O)[nH]c2c1 [Compound 91, N-cyclopentyl-7-(3,5-dimethylisoxazol-4-yl)-3-((2-(2-hydroxyethoxy)ethyl)amino)-2-oxo-1,2-dihydroquinoline-5-sulfonamide] |
| 1.92 | 1.9 | Cc1noc(C)c1-c1cc(S(=O)(=O)N[C@@H]2CCC[C@H]2O)c2ccc(=O)[nH]c2c1 [Compound 82, 7-(3,5-dimethylisoxazol-4-yl)-N-((1R,2R)-2-hydroxycyclopentyl)-2-oxo-1,2-dihydroquinoline-5-sulfonamide] |
| 10 | 12.4 | Cc1noc(C)c1-c1cc(S(=O)(=O)N[C@@H]2CCC[C@@H]2c2ccc(F)cc2)c2cccnc2c1 [Compound 13, 7-(3,5-dimethylisoxazol-4-yl)-N-((1R,2R)-2-(4-fluorophenyl)cyclopentyl)quinoline-5-sulfonamide] |
| 0.744 | 0.392 | Cc1noc(C)c1-c1cc(S(=O)(=O)NC2CCCC2)c2cc(NCCN)c(=O)[nH]c2c1 [Compound 78, 3-((2-aminoethyl)amino)-N-cyclopentyl-7-(3,5-dimethylisoxazol-4-yl)-2-oxo-1,2-dihydroquinoline-5-sulfonamide] |
| > 20 | 12.5 | Cc1noc(C)c1-c1cc(S(=O)(=O)N(C)C2CC2)c2cccnc2c1 [Compound 9, N-cyclopropyl-7-(3,5-dimethylisoxazol-4-yl)-N-methylquinoline-5-sulfonamide] |
| > 20 | 20 | Cc1noc(C)c1-c1cc(S(=O)(=O)NCCc2ccccc2)c2ccc(=O)[nH]c2c1 [Compound 48, 7-(3,5-dimethylisoxazol-4-yl)-2-oxo-N-phenethyl-1,2-dihydroquinoline-5-sulfonamide] |
| 0.717 | 0.519 | Cc1noc(C)c1-c1cc(S(=O)(=O)NC2CCCC2)c2cc(-n3ccnc3)c(=O)[nH]c2c1 [Compound 32, N-cyclopentyl-7-(3,5-dimethylisoxazol-4-yl)-3-(1H-imidazol-1-yl)-2-oxo-1,2-dihydroquinoline-5-sulfonamide] |
| 9.15 | 4.26 | Cc1noc(C)c1-c1cc(S(=O)(=O)NC2CCCC2)c2cccnc2c1Cl [Compound 18, 8-chloro-N-cyclopentyl-7-(3,5-dimethylisoxazol-4-yl)quinoline-5-sulfonamide] |
